Laboratory results as given in article PMC12191924, “A new naphthalene-based fluorogenic substrate for cytochrome P450 4A11” (Biochemical Journal, 2025).
Like-named read-outs stand apart in the source and are kept apart here.

Tested on: pooled human liver microsomes (HLM)
Test: Substrate saturation profiles of MONACRA metabolism by pooled HLM, global fitting
Assay type: in vitro ADME
Conditions: for Km: global fitting of seven pooled HLM preparations
Description: To probe the MONACRA metabolism by the human liver P450 system, we explored the SSPs of our new fluorogenic substrate by seven different pooled HLM preparations with P450 pool composition characterized by a global proteomics toolkit. […] The first two principal components cover 99.4% of the overall differences between the individual SSPs. While the first principal component mainly reflects the differences in SSP amplitude, the second PC is responsible for the changes in the contribution of the high- and low-affinity components. Global fitting of the dataset with a combination of three Michaelis–Menten equations yielded the components with K M values of 21, 213, and 730 µM (Figure 10C). The combinations of these three Michaelis–Menten components approximate all individual SSPs of the dataset with a square correlation coefficient (R ^2) higher than 0.998.
Figure 10: Substrate saturation profiles (SSPs) of 3-(6-methoxynaphthalen-2-yl)acrylic acid (MONACRA) metabolism by seven pooled preparations of human liver microsomes (HLMs) and their global analysis. The HLM preparations used in this study and their designations are described in the “Materials and Methods” section of the article. […] These two principal components cover 99.4% of the overall differences between the SSPs. […] The substance label MONACRA is taken from the axis title, as no other label is printed.
This study used preparations of pooled HLMs from 50, 150, or 200 donors (mixed gender). The preparations CDN, DNJ, and WGP were INVITROCYP 150-Donor Human Liver Microsomes obtained from BioIVT Corporation (Westbury, NY). Lot EGW is INVITROCYP M-Class 50-Donor HLM procured from the same company. Lots 1,910,096 and 1,210,347 were XTreme 200 Mixed Gender HLM (200 donors) purchased from XenoTech LLC (Kansas City, KS), currently a part of BioIVT. Lot 2,110,263 corresponds to mixed gender HLM from 50 donors from the same company. These lots are referred to herein as X096, X347, and X263, respectively. The supplier of the HLM preparations used in our studies, BioIVT Corporation, has declared to adhere to the regulations of the Department of Health and Human Services for the protection of human subjects (45 CFR §46.116 and §46.117) and Good Clinical Practice, (ICH E6) in obtaining the samples of human tissues used for producing the preparations of human subcellular fractions available from these companies.
The MONACRA metabolism experiments were conducted with 12 MONACRA stock solutions in the Incubation Buffer (0.1 M Hepes buffer pH 7.4 containing 60 mM KCl) with concentrations ranging from 0 to 3.3 mM prepared with serial dilution. A 0.3 M stock solution of MONACRA in DMSO was diluted by the Incubation Buffer to prepare the most concentrated (3.3 mM) solution in the series. This series of stock solutions provided the MONACRA concentrations in the incubation mixture decreasing from 825 to 0 µM with a dilution factor of 1.73333 (≈√3). The procedure of preparing the multiwell plates for activity assays was similar to that described earlier for FA-based assays. The prepared plate was placed into a heater-shaker module with a PCR-plate adapter in location 1 of the OT-2 deck. Suspensions of microsomes were diluted to the desired concentration (0.02–0.1 µM P450 for recombinant enzymes and 0.3–1 mg/ml for HLM samples) and placed into all eight wells of the first row of a PCR plate (96-well semi-skirted PCR plate, BrandTech Scientific Inc., Essex, CT), 255 µl per well. The PCR plate was inserted into a pre-cooled PCR-plate cooling block (Eppendorf, Hamburg, Germany) and placed at position 5 of the OT-2 deck. An Azzota deep-well plate placed in location 6 contained 0.4 ml of 0.3 M solution trichloroacetic acid as a quenching reagent. The second row of the same plate contained 0.6 ml of 2.4 molar Na-glycine buffer, pH 10.4. […]

[1] = across seven pooled HLM preparations

## COc1ccc2cc(C=CC(=O)O)ccc2c1 [MONACRA, 3-(6-methoxynaphthalen-2-yl)acrylic acid]
HLM sample CDN
  F 1 (fractional contribution of high-affinity phase): 0.1%
  F 2 (fractional contribution of middle-affinity phase): 68.7%
  F 3 (fractional contribution of low-affinity phase): 31.2%
HLM sample DNJ
  F 1 (fractional contribution of high-affinity phase): 0.5%
  F 2 (fractional contribution of middle-affinity phase): 91.6%
  F 3 (fractional contribution of low-affinity phase): 7.9%
HLM sample EGW
  F 1 (fractional contribution of high-affinity phase): 2.5%
  F 2 (fractional contribution of middle-affinity phase): 97.5%
  F 3 (fractional contribution of low-affinity phase): 0.0%
HLM sample WGP
  F 1 (fractional contribution of high-affinity phase): 0.0%
  F 2 (fractional contribution of middle-affinity phase): 34.4%
  F 3 (fractional contribution of low-affinity phase): 65.6%
HLM sample X096
  F 1 (fractional contribution of high-affinity phase): 9.8%
  F 2 (fractional contribution of middle-affinity phase): 0.0%
  F 3 (fractional contribution of low-affinity phase): 90.2%
HLM sample X263
  F 1 (fractional contribution of high-affinity phase): 21.7%
  F 2 (fractional contribution of middle-affinity phase): 21.5%
  F 3 (fractional contribution of low-affinity phase): 56.8%
[1]
  fraction of the high-affinity phase, average: 5.5%
  fraction of the lowest affinity component, average: 45.3%
  fraction of the lowest affinity component, range: 0–90%
  fraction of the middle-affinity phase, average: 49.2%
  fraction of the middle-affinity phase, range: 0–100%
read-out: KM of high-affinity Michaelis–Menten component
  Km: 21 µM
read-out: KM of low-affinity Michaelis–Menten component
  Km: 730 µM
read-out: KM of middle-affinity Michaelis–Menten component
  Km: 213 µM
